This test has as its target T1, GAL4-PPARγ fusion protein (Mus musculus, UniProt P37238).
T1 construct: expressed in transfected cells; host or cells: CV-1 cells
T1 sequence (P37238 163-475 isoform P37238-2): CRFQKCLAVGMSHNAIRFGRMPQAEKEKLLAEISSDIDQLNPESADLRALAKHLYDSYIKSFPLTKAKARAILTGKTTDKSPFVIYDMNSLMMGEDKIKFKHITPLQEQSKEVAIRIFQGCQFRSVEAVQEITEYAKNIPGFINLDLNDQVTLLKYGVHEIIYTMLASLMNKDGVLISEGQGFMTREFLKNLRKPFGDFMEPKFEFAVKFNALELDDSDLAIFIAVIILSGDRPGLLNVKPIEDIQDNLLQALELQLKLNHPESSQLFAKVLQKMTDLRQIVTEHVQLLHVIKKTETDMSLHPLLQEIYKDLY
In words: Screening assay for PPAR-γ antagonists (GAL4-PPARγ luciferase reporter in CV-1 cells). In kind it is cell-based. The note with it: CV-1 cells co-transfected with CMX-GAL-PPARγ and pTK-MH100x4-LUC; test compound alone or with agonist 200 nM BRL 49653; FIG. 1. The protocol:
Effector plasmid, reporter plasmid, and β-galactosidase control plasmid are co-transfected into CV-1 cells at a ratio of about 1:3:5, using a liposome-mediated method, employing N-{2-(2,3)-dioleoyloxy)propyl-N,N,N-trimethyl ammonium methyl sulfate} (i.e., DOTAP, Boehlinger Mannheim) according to the manufacturer's instructions in Dulbecco's modified Eagle's medium (DMEM) with 10% delipidated hormone-depleted fetal calf serum. After about 2-3 hours, the cells are washed with DMEM and agonist (200 nM BRL 49653) and/or an appropriate test compound (LY 171883; see FIG. 1) is added to the media. After 24-48 hours of incubation, the cells are rinsed with phosphate buffered saline (pH 7.2) and lysed. Aliquots are assayed for luciferase and β-galactosidase activity. Luciferase activity is normalized to optical density units of β-galactosidase per minute of incubation.
Thus, CV-1 cells are co-transfected with CMX-GAL-PPARγ and pTK-MH100x4-LUC at a ratio of about 100 ng of receptor-encoding DNA per 10^5 cells. The usual amounts of DNA per 10^5 cells are 100 ng of CMX-GAL-PPARγ, 300 ng of pTK-MH100x4-LUC, and 500 ng of CMX-βGAL. Typically, transfections are performed in triplicate. The plates are then incubated for 2-3 hours at 37° C.
The cells are washed with fresh medium. […]
The data are expressed as relative light units (RLUs) per O.D. unit of β-galactosidase per minute. […]
In general terms: Reporter assays use an easily measured gene product as a stand-in for the process of interest.

One molecule from patent US6605627B2, “Modulators of peroxisome proliferator activated receptor-gamma, and methods for the use thereof” (The Salk Insitute for Biological Studies, priority 1999, dated 2003) can be followed below.

For `CCCc1c(OCCCCc2nnn[nH]2)ccc(C(C)=O)c1O` [LY 171883], the “relative reporter activity (functional activity at PPARγ)” value is listed as “functional antagonist of PPARγ”.
